{"source": "patent US6225307A", "about": "“Viral treatment” (priority 2000, dated 2001)", "key": {"HIV-1 protease": {"molecular_target": "T1, HIV-1 protease (Human immunodeficiency virus type 1 group M subtype B, UniProt P04585)", "T1 construct": "fluorometric HIV-1 protease assay; purchased Bachem", "assay": "Protease inhibition assay (fluorometric method)", "format": "biochemical", "experimental": "Protease inhibition is evaluated using a fluorometric method. Enzyme (Bachem) is diluted to 116 μgm/ml in 50 mM NaOAC, 5 mM DTT, 2 mM EDTA, 10% glycerol (pH 5.0) and stored as 10 μl samples at -20° C., HIV protease substrates I (Molecular Probes) is diluted to a working concentration of 0.32 nmoles/μl. Enzyme (20 μl) and drug (20 μl) are added to each well of a microtiter plate as appropriate. Positive and negative control are evaluated in parallel. Fluorescence is quantitated on Labsystems Fluroskan II using 355 nm/460nm at 37° C. at time zero and at 30 minute intervals for 2 hours. In instances where autofluorescence precludes use of the fluorometric HIV-1 protease assay or confirmation of a result is required, an HPLC based protease assay can be employed."}, "HIV-1 integrase": {"molecular_target": "HIV-1 integrase (Human immunodeficiency virus type 1 group M subtype B, UniProt P12497)", "assay": "Integrase inhibition assay", "format": "biochemical", "from_the_text": "A biochemical integrase assay described by Craigie et at (HIV, vol. 2: A practical Approach) Biochemistry, Molecular Biology and Drug Discovery Ed. J. Karn 1995) to screen agents for their ability to inhibit HIV-1 integrase. In this system, a kinased oligonucleotide serves as the target of 3' processing and the subsequent strand transfer reaction. The 3' processing reaction involves the removal of 2 nucleotides from the 31 ends of the substrate and this is followed by the strand transfer reaction in which the 3' ends are joined to the exposed 5' ends. The 20 μl reaction mixture contains 25 mM MOPS (pH 7.2), […] BSA, 10 mM , β-mercaptoethanol, 10% glycerol, 7.5 mM MnCl2, 25 nM (7 ng) substrate (Oligo's Etc., Wilsonville, Ore.) and 200 nM (128 ng) integrase (NIAID AIDS Research and Reference Reagent Program, Bethesda, Md.). The reaction proceeds at 37° C. for 1-2 hours and is terminated by the addition of 20 μl of sequencing stop solution (USB Amersham, Arlington Heights, Ill.). The reaction products are visualized by autoradiography following electrophoresis in 15% polyacrylamide 6M Urea gel. The substrate migrates as a 30 mer, the product of 3' processing migrates as an N-2 band and the strand transfer products migrate more slowly at various sizes larger than the substrate."}}, "note": "pEC50, pIC50: −log10 of the molar value.", "data": [{"smiles": "CCC1(c2cccc(OC(=O)Nc3ccc(Cl)cc3)c2)CCCCN(C)C1=O", "note": "(stereo not drawn) [(4-chlorophenyl)-carbamic acid, 3-(hexahydro-3-ethyl-1-methyl-2-oxo-1H-azepin-3-yl) 2 phenyl ester]", "values": [{"measurement": "pEC50", "setting": "HIV-1 protease", "value": "< 3.60"}, {"measurement": "Protease inhibition, mean", "setting": "HIV-1 protease; 0.1 nM", "value": 27.9, "unit": "fluorometric units"}, {"measurement": "Protease inhibition, sample 1", "setting": "HIV-1 protease; 0.1 nM", "value": 24.7, "unit": "fluorometric units"}, {"measurement": "Protease inhibition, sample 2", "setting": "HIV-1 protease; 0.1 nM", "value": 31.2, "unit": "fluorometric units"}, {"measurement": "remaining activity at 0.0001 µM", "setting": "HIV-1 protease; 0.1 nM, read-out: % ND control", "value": 98.2, "unit": "%"}, {"measurement": "Protease inhibition, mean", "setting": "HIV-1 protease; 1 nM", "value": 27.4, "unit": "fluorometric units"}, {"measurement": "Protease inhibition, sample 1", "setting": "HIV-1 protease; 1 nM", "value": 27.4, "unit": "fluorometric units"}, {"measurement": "Protease inhibition, sample 2", "setting": "HIV-1 protease; 1 nM", "value": 27.5, "unit": "fluorometric units"}, {"measurement": "remaining activity at 0.001 µM", "setting": "HIV-1 protease; 1 nM, read-out: % ND control", "value": 96.4, "unit": "%"}, {"measurement": "Protease inhibition, mean", "setting": "HIV-1 protease; 10 nM", "value": 26.8, "unit": "fluorometric units"}, {"measurement": "Protease inhibition, sample 1", "setting": "HIV-1 protease; 10 nM", "value": 28.5, "unit": "fluorometric units"}, {"measurement": "Protease inhibition, sample 2", "setting": "HIV-1 protease; 10 nM", "value": 25.1, "unit": "fluorometric units"}, {"measurement": "remaining activity at 0.01 µM", "setting": "HIV-1 protease; 10 nM, read-out: % ND control", "value": 94.2, "unit": "%"}, {"measurement": "Protease inhibition, mean", "setting": "HIV-1 protease; 100 nM", "value": 30.0, "unit": "fluorometric units"}, {"measurement": "Protease inhibition, sample 1", "setting": "HIV-1 protease; 100 nM", "value": 29.3, "unit": "fluorometric units"}, {"measurement": "Protease inhibition, sample 2", "setting": "HIV-1 protease; 100 nM", "value": 30.7, "unit": "fluorometric units"}, {"measurement": "remaining activity at 0.1 µM", "setting": "HIV-1 protease; 100 nM, read-out: % ND control", "value": 105, "unit": "%"}, {"measurement": "activity as a protease inhibitor", "setting": "HIV-1 protease; screened using a fluorometric method", "value": "did not show activity"}, {"measurement": "pIC50", "setting": "HIV-1 integrase", "value": "< 3.60"}, {"measurement": "activity as an integrase inhibitor", "setting": "HIV-1 integrase", "value": "did not show activity"}, {"measurement": "HIV-1 integrase inhibition, mean", "setting": "HIV-1 integrase; 0.1 μg/ml", "value": 9908}, {"measurement": "HIV-1 integrase inhibition, sample 1", "setting": "HIV-1 integrase; 0.1 μg/ml", "value": 10151.6}, {"measurement": "HIV-1 integrase inhibition, sample 2", "setting": "HIV-1 integrase; 0.1 μg/ml", "value": 9664.3}, {"measurement": "remaining activity at 0.1 µg/mL", "setting": "HIV-1 integrase; 0.1 μg/ml, read-out: % no drug control", "value": 104, "unit": "%"}, {"measurement": "HIV-1 integrase inhibition, mean", "setting": "HIV-1 integrase; 1 μg/ml", "value": 10075}, {"measurement": "HIV-1 integrase inhibition, sample 1", "setting": "HIV-1 integrase; 1 μg/ml", "value": 9644.6}, {"measurement": "HIV-1 integrase inhibition, sample 2", "setting": "HIV-1 integrase; 1 μg/ml", "value": 10505.5}, {"measurement": "remaining activity at 1 µg/mL", "setting": "HIV-1 integrase; 1 μg/ml, read-out: % no drug control", "value": 105, "unit": "%"}, {"measurement": "HIV-1 integrase inhibition, mean", "setting": "HIV-1 integrase; 10 μg/ml", "value": 10097}, {"measurement": "HIV-1 integrase inhibition, sample 1", "setting": "HIV-1 integrase; 10 μg/ml", "value": 10964.5}, {"measurement": "HIV-1 integrase inhibition, sample 2", "setting": "HIV-1 integrase; 10 μg/ml", "value": 1129.7}, {"measurement": "remaining activity at 10 µg/mL", "setting": "HIV-1 integrase; 10 μg/ml, read-out: % no drug control", "value": 116, "unit": "%"}, {"measurement": "HIV-1 integrase inhibition, mean", "setting": "HIV-1 integrase; 100 μg/ml", "value": 10942}, {"measurement": "HIV-1 integrase inhibition, sample 1", "setting": "HIV-1 integrase; 100 μg/ml", "value": 9648.5}, {"measurement": "HIV-1 integrase inhibition, sample 2", "setting": "HIV-1 integrase; 100 μg/ml", "value": 12235.7}, {"measurement": "remaining activity at 100 µg/mL", "setting": "HIV-1 integrase; 100 μg/ml, read-out: % no drug control", "value": 114, "unit": "%"}]}]}
